Measured values: patent US7019001B2, “Substituted benzothiazole amide derivatives” (Hoffman-La Roche Inc., priority 2001, dated 2006)
Like-named read-outs stand apart in the source and are kept apart here.

Tests used:
[1] = target: T1, human adenosine A2A receptor (Homo sapiens, UniProt P29274); experiment: [3H]-SCH-58261 binding assay, human adenosine A2A receptor (CHO cell membranes, SPA)
T1 construct: expressed in transfected cells; host or cells: CHO cells, semliki forest virus expression system; washed membrane pellet used
T1 sequence (P29274 whole entry): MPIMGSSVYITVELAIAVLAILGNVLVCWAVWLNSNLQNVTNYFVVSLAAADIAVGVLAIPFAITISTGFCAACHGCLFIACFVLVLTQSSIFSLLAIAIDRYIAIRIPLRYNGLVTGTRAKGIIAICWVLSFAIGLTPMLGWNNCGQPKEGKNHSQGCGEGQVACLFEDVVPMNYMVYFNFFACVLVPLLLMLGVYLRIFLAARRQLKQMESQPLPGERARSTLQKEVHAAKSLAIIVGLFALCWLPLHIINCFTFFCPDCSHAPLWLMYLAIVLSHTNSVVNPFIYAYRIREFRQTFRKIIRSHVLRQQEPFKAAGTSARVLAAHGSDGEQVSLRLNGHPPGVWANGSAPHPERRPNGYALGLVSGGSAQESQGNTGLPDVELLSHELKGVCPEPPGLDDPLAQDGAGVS
Method: Human Adenosine A2A Receptor
The human adenosine A2A receptor was recombinantly expressed in chinese hamster ovary (CHO) cells using the semliki forest virus expression system. Cells were harvested, washed twice by centrifugation, homogenised and again washed by centrifugation. The final washed membrane pellet was suspended in a Tris (50 mM) buffer containing 120 mM NaCl, 5 mM KCl, 2 mM CaCl2 and 10 mM MgCl2 (pH 7.4) (buffer A). The [^3H]-SCH-58261 (Dionisotti et al., 1997, Br J Pharmacol 121, 353; 1 nM) binding assay was carried out in 96-well plates in the presence of 2.5 μg of membrane protein, 0.5 mg of Ysi-poly-1-lysine SPA beads and 0.1 U adenosine deaminase in a final volume of 200 μl of buffer A. Non-specific binding was defined using xanthine amine congener (XAC; 2 μM). Compounds were tested at 10 concentrations from 10 μM–0.3 nM. All assays were conducted in duplicate and repeated at least two times. Assay plates were incubated for 1 hour at room temperature before centrifugation and then bound ligand determined using a Packard Topcount scintillation counter. IC50 values, the concentration where 50% of the […] binding is displaced, were calculated using a non-linear curve fitting program and Ki values calculated using the Cheng-Prussoff equation.

[2] = displacement of [3H]-SCH-58261 (1 nM), recombinant receptor in CHO membranes, Ki by Cheng-Prussoff equation, read-out: hA2 (pKi) (converted)

| SMILES | Ki [1, 2] [nM] | also measured |
| --- | --- | --- |
| COc1ccc(N2CCOCC2)c2sc(NC(=O)N(C)[C@H]3CC[C@@H](OC)CC3)nc12 [Example 25, (cis)-1-(4-Methoxy-cyclohexyl)-3-(4-methoxy-7-morpholin-4-yl-benzothiazol-2-yl)-1-methyl-urea] | 20 | melting point: 198 to 200 °C |
| COc1ccc(N2CCOCC2)c2sc(NC(=O)N(C)C3CCCC3)nc12 [Example 36, 1-Cyclopentyl-3-(4-methoxy-7-morpholin-4-yl-benzothiazol-2-yl)-1-methyl-urea] | 7.94 | melting point: 110 to 125 °C |
| COc1ccc(N2CCOCC2)c2sc(NC(=O)N3[C@@H]4CC[C@H]3C[C@@H](O)C4)nc12 [Example 3, 3-endo-Hydroxy-8-aza-bicyclo[3.2.1]octane-8-carboxylic acid (4-methoxy-7-morpholin-4-yl-benzothiazol-2-yl)-amide] | – | Ki [1]: 7.94 nM |
| COc1ccc(N2CCOCC2)c2sc(NC(=O)N3CCC4(CCN(C)C4=O)CC3)nc12 [Example 4, 2-Methyl-1-oxo-2,8-diaza-spiro[4.5]decane-8-carboxylic acid (4-methoxy-7-morpholin-4-yl-benzothiazol-2-yl)-amide] | 6.31 | – |
| Cc1ccc(CC2(O)CCN(C(=O)Nc3nc4c(Cl)ccc(N5CCCCC5)c4s3)CC2)cc1 [Example 20, 4-Hydroxy-4-(4-methyl-benzyl)-piperidine-1-carboxylic acid (4-chloro-7-piperidin-1-yl-benzothiazol-2-yl)-amide] | 3.16 | – |
| COc1ccc(N2CCOCC2)c2sc(NC(=O)N(C)C3CCC(F)(F)CC3)nc12 [Example 24, 1-(4,4-Difluoro-cyclohexyl)-3-(4-methoxy-7-morpholin-4-yl-benzothiazol-2-yl)-1-methyl-urea] | 10 | melting point: 189 to 192 °C |
| COc1ccc(N2CCOCC2)c2sc(NC(=O)N3CCC4(CCCO4)CC3)nc12 [Example 13, 1-Oxa-8-aza-spiro[4.5]decane-8-carboxylic acid (4-methoxy-7-morpholin-4-yl-benzothiazol-2-yl)-amide] | 2.51 | – |
| COc1ccc(N2CCOCC2)c2sc(NC(=O)N3CCCOCC3)nc12 [Example 28, Oxazepane-4-carboxylic acid (4-methoxy-7-morpholin-4-yl-benzothiazol-2-yl)-amide] | – | hA2 (pKi) ([1]; displacement of [3H]-SCH-58261 (1 nM), recombinant receptor in CHO membranes, Ki by Cheng-Prussoff equation): 7.9 |
| COc1ccc(N2CCOCC2)c2sc(NC(=O)NC3CCOCC3)nc12 [Example 2, 1-(4-Methoxy-7-morpholin-4-yl-benzothiazol-2-yl)-3-(tetrahydro-pyran-4-yl)-urea] | 12.6 | – |
| COc1ccc(N2CCOCC2)c2sc(NC(=O)N3CC4CCC3CC4)nc12 [Example 12, 2-Aza-bicyclo[2.2.2]octane-2-carboxylic acid (4-methoxy-7-morpholin-4-yl-benzothiazol-2-yl)-amide] | 2.51 | – |
| COc1ccc(N2CCOCC2)c2sc(NC(=O)N(C)C3CCCCC3)nc12 [Example 9, 1-Cyclohexyl-3-(4-methoxy-7-morpholin-4-yl-benzothiazol-2-yl)-1-methyl-urea] | 12.6 | – |
| COc1ccc(N2CCOCC2)c2sc(NC(=O)N3CC4CC[C@@](C)(C3)C4(C)C)nc12 [Example 26, (1R)-1,8,8-Trimethyl-3-aza-bicyclo[3.2.1]octane-3-carboxylic acid (4-methoxy-7-morpholin-4-yl-benzothiazol-2-yl)-amide] | – | melting point: 185 to 189 °C |
| COc1ccc(N2CCOCC2)c2sc(NC(=O)N3CCC(CNS(C)(=O)=O)CC3)nc12 [Example 16, 4-(Methanesulfonylamino-methyl)-piperidine-1-carboxylic acid (4-methoxy-7-morpholin-4-yl-benzothiazol-2-yl)-amide] | 15.8 | – |
| COc1ccc(N2CCOCC2)c2sc(NC(=O)N3CCC(CO)(Cc4ccccc4)CC3)nc12 [Example 8, 4-Benzyl-4-hydroxymethyl-piperidine-1-carboxylic acid (4-methoxy-7-morpholin-4-yl-benzothiazol-2-yl)-amide] | 3.98 | – |
| COc1ccc(N2CCCCC2)c2sc(NC(=O)N3CCC4(CCCO4)CC3)nc12 [Example 19, 1-Oxa-8-aza-spiro[4.5]decane-8-carboxylic acid (4-methoxy-7-piperidin-1yl-benzothiazol-2-yl)-amide] | 3.98 | – |
| COc1ccc(N2CCOCC2)c2sc(NC(=O)N3CCC([C@@H](C)O)CC3)nc12 [Example 14, (R)-4-(1-Hydroxy-ethyl)-piperidine-1-carboxylic acid (4-methoxy-7-morpholin-4-yl-benzothiazol-2-yl)-amide] | 7.94 | – |
| COc1ccc(N2CCOCC2)c2sc(NC(=O)N3CCC4(CCCCC4)CC3)nc12 [Example 10, 3-Aza-spiro[5.5]undecane-3-carboxylic acid (4-methoxy-7-morpholin-4-yl-benzothiazol-2-yl)-amide] | 10 | – |
| O=C(Nc1nc2c(Cl)ccc(N3CCCCC3)c2s1)NC1CCCCC1 [Example 21, 1-(4-Chloro-7-piperidin-1-yl-benzothiazol-2-yl)-3-cyclohexyl-urea] | 2.51 | – |

Further lines, with some results ahead:

| Ki [1, 2] [nM] | SMILES | also measured |
| --- | --- | --- |
| 25.1 | COc1ccc(N2CCOCC2)c2sc(NC(=O)N(C)[C@H]3CC[C@H](OC)CC3)nc12 [Example 32, (trans)-1-(4-Methoxy-cyclohexyl)-3-(4-methoxy-7-morpholin-4-yl-benzothiazol-2-yl)-1-methyl-urea] | melting point: 211 to 213 °C |
| 15.8 | O=C(Nc1nc2c(Cl)ccc(N3CCCCC3)c2s1)N1CCC(Cc2ccccc2)CC1 [Example 22, 4-Benzyl-piperidine-1-carboxylic acid (4-chloro-7-piperidin-1-yl-benzothiazol-2-yl)-amide] | – |
| 7.94 | COc1ccc(N2CCOCC2)c2sc(NC(=O)N(C)[C@H]3CC[C@@H](F)CC3)nc12 [Example 23, 1-(4cis-Fluoro-cyclohexyl)-3-(4-methoxy-7-morpholin-4-yl-benzothiazol-2-yl)-1-methyl-urea] | melting point: 201 to 204 °C |
| 6.31 | COc1ccc(N2CCOCC2)c2sc(NC(=O)N3CCC4(CCCC4)CC3)nc12 [Example 11, 8-Aza-spiro[4.5]decane-8-carboxylic acid (4-methoxy-7-morpholin-4-yl-benzothiazol-2-yl)-amide] | – |
| 6.31 | COc1ccc(N2CCOCC2)c2sc(NC(=O)N3CCC4(CCNC4=O)CC3)nc12 [Example 5, 1-Oxo-2,8-diaza-spiro[4.5]decane-8-carboxylic acid (4-methoxy-7-morpholin-4-yl-benzothiazol-2-yl)-amide] | – |
| 7.94 | COc1ccc(N2CCOCC2)c2sc(NC(=O)N3CCN(c4ccccc4)CC3)nc12 [Example 7, 4-Phenyl-piperazine-1-carboxylic acid (4-methoxy-7-morpholin-4-yl-benzothiazol-2-yl)-amide] | – |
| 7.94 | COc1ccc(N2CCOCC2)c2sc(NC(=O)N3CCC([C@H](C)O)CC3)nc12 [Example 15, (S)-4-(1-Hydroxy-ethyl)-piperidine-1-carboxylic acid (4-methoxy-7-morpholin-4-yl-benzothiazol-2-yl)-amide] | – |
| 3.16 | COc1ccc(N2CCOCC2)c2sc(NC(=O)N3C[C@@H]4C[C@H]3CO4)nc12 [Example 1, (1S,4S)-2-Oxa-5-aza-bicyclo[2.2.1]heptane-5-carboxylic acid (4-methoxy-7-morpholin-4-yl-benzothiazol-2-yl)-amide] | – |
